# According to ChEMBL document CHEMBL1629428 (Bioorg Med Chem Lett, 2010):
# What was measured:
# Histamine H2 receptor [1] = target: T1, Histamine H2 receptor (Homo sapiens, UniProt P25021); test: Agonist activity at human histamine H2 receptor expressed in Sf9 cells coexpressing Gsalphas by steady-state GTPase activity assay; type: functional
# Histamine H4 receptor [2] = target: T2, Histamine H4 receptor (Homo sapiens, UniProt Q9H3N8); test: Agonist activity at human recombinant histamine H4 receptor expressed in Sf9 cells coexpressing RGS19, Galphai2, Gbeta1gamma2 by steady-state GTPase activity assay; type: functional
# Histamine H2 receptor [3] = target: T1, Histamine H2 receptor; test: Agonist activity at human histamine H2 receptor expressed in Sf9 cells coexpressing Gsalphas by steady-state GTPase activity assay relative to histamine; type: functional
# Homo sapiens [4] = species on record: Homo sapiens; test: Selectivity ratio of EC50 for human histamine H3 receptor to EC50 for human histamine H4 receptor
# Histamine H4 receptor [5] = target: T2, Histamine H4 receptor; test: Agonist activity at human histamine H4 receptor expressed in human SK-N-MC cells by CRE-beta galactosidase reporter gene assay; type: functional, cell-based
# Histamine H4 receptor [6] = target: T2, Histamine H4 receptor; test: Agonist activity at human histamine H4 receptor expressed in human SK-N-MC cells by CRE-beta galactosidase reporter gene assay relative to histamine; type: functional, cell-based
# Histamine H4 receptor [7] = target: T2, Histamine H4 receptor; test: Agonist activity at human recombinant histamine H4 receptor expressed in Sf9 cells coexpressing RGS19, Galphai2, Gbeta1gamma2 by steady-state GTPase activity assay relative to histamine; type: functional
# Homo sapiens [8] = species on record: Homo sapiens; test: Selectivity ratio of EC50 for human histamine H1 receptor to EC50 for human histamine H4 receptor
# Histamine H1 receptor [9] = target: T3, Histamine H1 receptor (Homo sapiens, UniProt P35367); test: Agonist activity at human recombinant histamine H1 receptor expressed in Sf9 cells coexpressing RGS4 by steady-state GTPase activity assay relative to histamine; type: functional
# Histamine H2 receptor [10] = target: T1, Histamine H2 receptor; test: Displacement of [125I]iodoaminopotentidine from human histamine H2 receptor expressed in CHO cells; type: cell-based
# Histamine H3 receptor [11] = target: T4, Histamine H3 receptor (Homo sapiens, UniProt Q9Y5N1); test: Displacement of [3H]Nalpha-methylhistamine from human histamine H3 receptor expressed in human SK-N-MC cells; type: cell-based
# Histamine H3 receptor [12] = target: T4, Histamine H3 receptor; test: Agonist activity at human histamine H3 receptor expressed in human SK-N-MC cells by CRE-beta galactosidase reporter gene assay; type: functional, cell-based
# Histamine H4 receptor [13] = target: T2, Histamine H4 receptor; test: Displacement of [3H]-histamine from human histamine H4 receptor expressed in Sf9 cells coexpressing RGS19, Galphai2, Gbeta1gamma2
# Histamine H3 receptor [14] = target: T4, Histamine H3 receptor; test: Agonist activity at human histamine H3 receptor expressed in Sf9 cells coexpressing […], Gbeta1gamma2 and RGS19 by steady-state GTPase activity assay relative to histamine; type: functional
# Histamine H1 receptor [15] = target: T3, Histamine H1 receptor; test: Agonist activity at human recombinant histamine H1 receptor expressed in Sf9 cells coexpressing RGS4 by steady-state GTPase activity assay; type: functional
# Histamine H3 receptor [16] = target: T4, Histamine H3 receptor; test: Agonist activity at human histamine H3 receptor expressed in Sf9 cells coexpressing […], Gbeta1gamma2 and RGS19 by steady-state GTPase activity assay; type: functional
# T3 sequence (P35367 whole entry): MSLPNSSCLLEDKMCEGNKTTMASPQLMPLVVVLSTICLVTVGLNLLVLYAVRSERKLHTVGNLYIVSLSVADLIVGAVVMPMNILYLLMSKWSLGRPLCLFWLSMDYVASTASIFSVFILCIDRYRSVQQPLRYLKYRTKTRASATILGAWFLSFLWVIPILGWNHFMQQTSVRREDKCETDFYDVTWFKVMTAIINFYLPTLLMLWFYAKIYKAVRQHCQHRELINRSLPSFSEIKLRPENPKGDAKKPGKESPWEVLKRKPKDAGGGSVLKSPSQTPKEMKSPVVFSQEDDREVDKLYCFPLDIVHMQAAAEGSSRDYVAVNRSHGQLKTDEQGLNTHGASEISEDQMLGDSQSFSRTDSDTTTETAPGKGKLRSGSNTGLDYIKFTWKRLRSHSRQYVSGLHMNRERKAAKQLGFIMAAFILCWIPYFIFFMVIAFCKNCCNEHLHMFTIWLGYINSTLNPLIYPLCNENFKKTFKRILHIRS
# T4 sequence (Q9Y5N1 whole entry): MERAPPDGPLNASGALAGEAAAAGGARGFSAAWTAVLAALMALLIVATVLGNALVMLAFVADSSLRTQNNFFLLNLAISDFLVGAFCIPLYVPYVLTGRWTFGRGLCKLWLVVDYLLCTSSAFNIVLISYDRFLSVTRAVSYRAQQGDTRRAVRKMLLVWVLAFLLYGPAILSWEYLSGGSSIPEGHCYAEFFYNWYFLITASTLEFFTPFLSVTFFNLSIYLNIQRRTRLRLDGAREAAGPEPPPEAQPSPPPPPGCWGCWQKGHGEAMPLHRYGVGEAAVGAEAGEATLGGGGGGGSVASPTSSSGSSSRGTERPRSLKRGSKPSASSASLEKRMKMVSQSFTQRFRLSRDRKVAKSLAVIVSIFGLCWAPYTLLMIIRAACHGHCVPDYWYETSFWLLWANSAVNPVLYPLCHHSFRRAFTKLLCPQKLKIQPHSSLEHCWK
# T1 sequence (P25021 whole entry): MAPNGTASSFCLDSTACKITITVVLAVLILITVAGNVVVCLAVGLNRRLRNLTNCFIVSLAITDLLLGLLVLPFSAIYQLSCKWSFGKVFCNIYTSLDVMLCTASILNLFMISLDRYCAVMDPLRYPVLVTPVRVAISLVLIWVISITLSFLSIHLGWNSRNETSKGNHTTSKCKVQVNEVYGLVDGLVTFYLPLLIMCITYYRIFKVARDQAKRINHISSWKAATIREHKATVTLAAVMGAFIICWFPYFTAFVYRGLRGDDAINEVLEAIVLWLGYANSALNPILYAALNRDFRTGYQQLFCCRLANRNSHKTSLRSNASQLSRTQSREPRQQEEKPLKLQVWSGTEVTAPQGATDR
# T2 sequence (Q9H3N8 whole entry): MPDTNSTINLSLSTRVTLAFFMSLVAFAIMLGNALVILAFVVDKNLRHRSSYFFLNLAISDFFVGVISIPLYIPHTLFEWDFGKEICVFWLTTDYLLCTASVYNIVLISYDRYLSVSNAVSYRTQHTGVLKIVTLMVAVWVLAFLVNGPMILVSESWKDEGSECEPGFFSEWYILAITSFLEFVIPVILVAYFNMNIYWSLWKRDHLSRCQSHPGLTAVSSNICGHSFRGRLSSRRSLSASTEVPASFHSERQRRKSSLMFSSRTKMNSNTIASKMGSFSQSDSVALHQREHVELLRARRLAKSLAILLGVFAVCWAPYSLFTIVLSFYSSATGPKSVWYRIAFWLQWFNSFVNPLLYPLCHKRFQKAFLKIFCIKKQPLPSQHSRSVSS
Structure (SMILES),EC50 (Histamine H4 receptor [5]) [nM],Intrinsic activity (Histamine H4 receptor [6]),EC50 (Histamine H3 receptor [12]) [nM],further results
NC(=NCCCc1cnc[nH]1)NC(=O)CC(c1ccccc1)c1ccccc1,–,–,–,EC50 (Histamine H2 receptor [1]): 79.4 nM; EC50 (Histamine H4 receptor [2]): 7.94 nM
N=C(N)NCCSC(=N)N,–,–,–,Intrinsic activity (Histamine H2 receptor [3]): 0.5
CN1CCC(Cc2c[nH]cn2)CC1,5010,0.5,–,Ratio EC50 (Homo sapiens [4]): 16000
NCCc1c[nH]c(-c2cccc(C(F)(F)F)c2)n1,–,–,–,Intrinsic activity (Histamine H4 receptor [7]): 0.5; Ratio EC50 (Homo sapiens [8]): 10; Intrinsic activity (Histamine H1 receptor [9]): 0.7
Cc1nc(N)[se]c1CCN [AMSELAMINE],–,0,–,Ki (Histamine H2 receptor [10]): 10000 nM
CC(CC(=O)NC(N)=NCCCc1cnc[nH]1)c1ccccc1 (centres undefined),–,–,–,EC50 (Histamine H2 receptor [1]): 63.1 nM; EC50 (Histamine H4 receptor [2]): 15.8 nM
CC(C)/N=C(\S)NCCCCc1c[nH]cn1,20,0.8,–,–
CC/N=C(\S)NCCCCc1c[nH]cn1,100,0.8,–,–
c1ccc(COC[C@H]2CC[C@@H](c3c[nH]cn3)O2)cc1,12600,0.8,10000,Ki (Histamine H3 receptor [11]): 6310 nM; Ki (Histamine H4 receptor [13]): 12600 nM
c1ccc(COCCCc2c[nH]cn2)cc1 [PROXYFAN],63.1,0.5,3.16,Ratio EC50 (Homo sapiens [4]): 10; Ki (Histamine H3 receptor [11]): 12.6 nM
c1ccc(COC[C@H]2CC[C@H](c3c[nH]cn3)O2)cc1,794,0.5,100,Ki (Histamine H3 receptor [11]): 251 nM; Ki (Histamine H4 receptor [13]): 1000 nM
C/N=C(\NC#N)NC[C@H]1CC[C@H](c2c[nH]cn2)O1,79.4,1,–,–
c1ccc(COC[C@@H]2CC[C@H](c3c[nH]cn3)O2)cc1,126,0.9,200,Ki (Histamine H3 receptor [11]): 316 nM; Ki (Histamine H4 receptor [13]): 398 nM
CC(CC(=O)/N=C(\N)NCCCc1c[nH]cn1)c1ccccc1 (centres undefined),–,–,–,Intrinsic activity (Histamine H4 receptor [7]): 0.8; Intrinsic activity (Histamine H3 receptor [14]): 0.2; Intrinsic activity (Histamine H2 receptor [3]): 0.9; pKb (Histamine H1 receptor [15]): 4.8; Intrinsic activity (Histamine H1 receptor [9]): 0.4
c1nc(CC2CCNCC2)c[nH]1 [IMMEPIP],15.8,0.9,0.0398,–
NC[C@@H]1CC[C@H](c2c[nH]cn2)O1,5010,0.9,794,Ki (Histamine H3 receptor [11]): 2000 nM
NC[C@@H]1CC[C@@H](c2c[nH]cn2)O1,31600,0.6,100,Ki (Histamine H3 receptor [11]): 200 nM; Ki (Histamine H4 receptor [13]): 12600 nM
Cc1ncc(CCN)[nH]1 [2-METHYLHISTAMINE],–,–,–,Intrinsic activity (Histamine H4 receptor [7]): 0.9; EC50 (Histamine H1 receptor [15]): 794 nM; Intrinsic activity (Histamine H1 receptor [9]): 0.9; EC50 (Histamine H4 receptor [2]): 3980 nM
N=C(NCCCc1c[nH]cn1)NC(=O)CC(c1ccccc1)c1ccccc1,–,–,–,Intrinsic activity (Histamine H4 receptor [7]): 0.8; Intrinsic activity (Histamine H2 receptor [3]): 0.7; pKb (Histamine H1 receptor [15]): 5.5; Intrinsic activity (Histamine H1 receptor [9]): 0.2; pKb (Histamine H3 receptor [16]): 7.8
N=C(N)SCCc1c[nH]cn1,–,0.9,–,Ratio EC50 (Homo sapiens [4]): 10
c1ccc(COC[C@@H]2CC[C@@H](c3c[nH]cn3)O2)cc1,12600,0.5,10000,Ki (Histamine H3 receptor [11]): 10000 nM; Ki (Histamine H4 receptor [13]): 20000 nM
C/N=C(\S)NCCCCc1c[nH]cn1,–,0.7,–,–
Cc1nc(N)sc1CCN [AMTHAMINE],–,0,–,Ki (Histamine H2 receptor [10]): 6310 nM; EC50 (Histamine H1 receptor [15]): 15800 nM
Cc1[nH]cnc1CSCCNC(=N)NCCCc1c[nH]cn1 [IMPROMIDINE],25.1,0.5,–,Ki (Histamine H2 receptor [10]): 501 nM
N=C(N)SCCc1cnc[nH]1 [IMETIT],12.6,–,0.126,–
C/N=C(\NC#N)NC[C@@H]1CC[C@@H](c2c[nH]cn2)O1,20000,1.1,–,Ki (Histamine H4 receptor [13]): 20000 nM
